Measurements reported in PMC3427316 (PLoS ONE, 2012).

Key:
[1] = system: NA with I223R mutation of H1N1pdm09 virus; assay type: biochemical, influenza A(H1N1)pdm09 virus
[2] = system: H1N1pdm09 virus resistant to oseltamivir; conditions: zanamivir inhaled (n = 8), intravenous (n = 5) or nebulised (n = 1); cited from earlier work

Structure (SMILES): CCC(CC)O[C@@H]1C=C(C(=O)O)C[C@H](N)[C@H]1NC(C)=O [OC, oseltamivir carboxylate]
- reduction in susceptibility associated with the I223R mutation [1]: 9 to 18 fold

Structure (SMILES): CC(=O)N[C@H]1[C@H]([C@H](O)[C@H](O)CO)OC(C(=O)O)=C[C@@H]1N=C(N)N [ZAN, zanamivir]
- patients with reduced viral shedding or recovery [2]: 12/14
